Laboratory results reported in the NIST ThermoML archive (doi:10.1016/j.tca.2005.03.009).

Assay: excess molar enthalpy (molar enthalpy of mixing); xn = mol fraction of the nth substance listed
Conditions: 298.15 K, 10000 kPa, Liquid, Flow calorimetry

CCOC(C)=O [ethyl acetate] + CO
Conditions | excess molar enthalpy [kJ/mol]
x1 = 0.057 | 0.183
x1 = 0.086 | 0.273
x1 = 0.113 | 0.334
x1 = 0.188 | 0.523
x1 = 0.257 | 0.68
x1 = 0.319 | 0.809
x1 = 0.377 | 0.897
x1 = 0.43 | 0.968
x1 = 0.478 | 0.996
x1 = 0.524 | 1.01
x1 = 0.566 | 1.01
x1 = 0.605 | 0.987
x1 = 0.641 | 0.977
x1 = 0.675 | 0.945
x1 = 0.707 | 0.91
x1 = 0.738 | 0.87
x1 = 0.766 | 0.822
x1 = 0.793 | 0.768
x1 = 0.818 | 0.711
x1 = 0.842 | 0.651
x1 = 0.864 | 0.585
x1 = 0.886 | 0.518
x1 = 0.906 | 0.447
x1 = 0.926 | 0.368
x1 = 0.944 | 0.285
x1 = 0.962 | 0.2
x1 = 0.979 | 0.106

CCC(C)=O [butanone] + CCOC(C)=O
Conditions | excess molar enthalpy [kJ/mol]
x2 = 0.047 | 0.297
x2 = 0.082 | 0.5
x2 = 0.118 | 0.692
x2 = 0.153 | 0.84
x2 = 0.189 | 1
x2 = 0.225 | 1.13
x2 = 0.262 | 1.26
x2 = 0.298 | 1.35
x2 = 0.335 | 1.45
x2 = 0.371 | 1.52
x2 = 0.408 | 1.58
x2 = 0.446 | 1.63
x2 = 0.483 | 1.67
x2 = 0.52 | 1.69
x2 = 0.558 | 1.69
x2 = 0.596 | 1.68
x2 = 0.634 | 1.62
x2 = 0.673 | 1.57
x2 = 0.711 | 1.48
x2 = 0.75 | 1.38
x2 = 0.789 | 1.24
x2 = 0.828 | 1.09
x2 = 0.867 | 0.905
x2 = 0.907 | 0.68
x2 = 0.947 | 0.431
x2 = 0.96 | 0.324
x2 = 0.974 | 0.217

CCOC(C)=O [ethyl acetate] + CCO
Conditions | excess molar enthalpy [kJ/mol]
x1 = 0.03 | 0.141
x1 = 0.054 | 0.247
x1 = 0.078 | 0.366
x1 = 0.104 | 0.47
x1 = 0.13 | 0.566
x1 = 0.157 | 0.661
x1 = 0.184 | 0.755
x1 = 0.213 | 0.846
x1 = 0.243 | 0.931
x1 = 0.274 | 1.01
x1 = 0.306 | 1.08
x1 = 0.339 | 1.15
x1 = 0.373 | 1.2
x1 = 0.409 | 1.25
x1 = 0.446 | 1.3
x1 = 0.485 | 1.33
x1 = 0.525 | 1.34
x1 = 0.567 | 1.33
x1 = 0.611 | 1.31
x1 = 0.657 | 1.26
x1 = 0.705 | 1.19
x1 = 0.754 | 1.09
x1 = 0.807 | 0.947
x1 = 0.861 | 0.763
x1 = 0.919 | 0.509
x1 = 0.939 | 0.4
x1 = 0.96 | 0.274

CCOC(C)=O [ethyl acetate] + CC(C)O
Conditions | excess molar enthalpy [kJ/mol]
x1 = 0.039 | 0.272
x1 = 0.07 | 0.475
x1 = 0.1 | 0.647
x1 = 0.132 | 0.805
x1 = 0.163 | 0.952
x1 = 0.196 | 1.08
x1 = 0.229 | 1.21
x1 = 0.262 | 1.31
x1 = 0.296 | 1.41
x1 = 0.331 | 1.49
x1 = 0.366 | 1.56
x1 = 0.402 | 1.62
x1 = 0.439 | 1.65
x1 = 0.476 | 1.69
x1 = 0.514 | 1.71
x1 = 0.553 | 1.7
x1 = 0.592 | 1.68
x1 = 0.632 | 1.63
x1 = 0.673 | 1.57
x1 = 0.715 | 1.47
x1 = 0.758 | 1.34
x1 = 0.801 | 1.19
x1 = 0.845 | 0.999
x1 = 0.891 | 0.761
x1 = 0.937 | 0.482
x1 = 0.952 | 0.378
x1 = 0.969 | 0.254

CCOC(C)=O [ethyl acetate] + CCCO
Conditions | excess molar enthalpy [kJ/mol]
x1 = 0.039 | 0.251
x1 = 0.068 | 0.397
x1 = 0.098 | 0.542
x1 = 0.129 | 0.674
x1 = 0.16 | 0.796
x1 = 0.192 | 0.919
x1 = 0.225 | 1.02
x1 = 0.258 | 1.12
x1 = 0.291 | 1.2
x1 = 0.326 | 1.28
x1 = 0.361 | 1.36
x1 = 0.396 | 1.41
x1 = 0.433 | 1.46
x1 = 0.47 | 1.48
x1 = 0.508 | 1.51
x1 = 0.547 | 1.51
x1 = 0.586 | 1.5
x1 = 0.627 | 1.46
x1 = 0.668 | 1.42
x1 = 0.71 | 1.34
x1 = 0.753 | 1.24
x1 = 0.797 | 1.11
x1 = 0.842 | 0.932
x1 = 0.888 | 0.725
x1 = 0.935 | 0.457
x1 = 0.951 | 0.351
x1 = 0.968 | 0.24
